Test results as given in US9150585B2, “Analogs of camptothecin” (FL Therapeutics, LLC, priority 2012, dated 2015).

Assays:
[1] = target: Human serum albumin (HSA) (Homo sapiens, UniProt P02768); test: HSA-binding assay (equilibrium dialysis); details: isolated protein
Method: Equilibrium dialysis was performed in a 24-well BD Gentest Serum Binding System (BD Biosciences, Woburn, Mass.). Human serum albumin (HSA) at 0.6 mM was prepared by dissolving in phosphate buffered saline (PBS: 4.01 mL 1 M K2HPO4+0.99 mL 1 M KH2PO4+1.37 mL 5 M NaCl+43.63 mL water). After washing and soaking the 24-well BD Gentest Serum Binding System with water, 30% ethanol, and PBS, 750 μL of HSA and 250 μL of PBS were dispensed into each donor and receiver well, respectively. 3.75 μL of 1 mM test compound or wafarin (as control) was spiked into HSA in each donor well. The duplicate incubations were performed at 37° C. for 20 hrs.
After incubation, HSA and buffer samples collected from donor and receiver wells, together with calibration standard samples, were prepared in 96-well plates as shown in Table 5.
The plates were then capped, vortexed, and centrifuged at 3500 rpm for 10 minutes. The supernatant was injected into LC-MS/MS. Sample analysis was performed on an LC/MS/MS system composed of Shimadzu Prominence pumps, SIL-20ACHT autosampler, and Applied Biosystems/MDS Sciex API 3200.

[2] = Persistence in plasma (incubation with human plasma, LC-MS/MS); type: in vitro ADME; details: for Peak Area Ratio (Analyte/IS) Human Plasma 0 min Replicate 1 / Peak Area Ratio (Analyte/IS) Human Plasma 0 min Replicate 2 / Peak Area Ratio (Analyte/IS) Human Plasma 60 min Replicate 1 / Peak Area Ratio (Analyte/IS) Human Plasma 60 min Replicate 2 / % Remaining after 1-hr Incubation at 37° C. in Human Plasma, Average / % Remaining after 1-hr Incubation at 37° C. in Human Plasma, Replicate 1 / % Remaining after 1-hr Incubation at 37° C. in Human Plasma, Replicate 2: 10 μM
Method: Test compounds and control (procaine) were incubated at a concentration of 10 μM with human plasma. The duplicate incubations, conducted in 96-well plates in a shaking water bath maintained at 37° C., were performed for 0 and 60 minutes and quenched by addition of acetonitrile.
After quenching by acetonitrile, the plates were capped, vortexed, and centrifuged at 3000 rpm for 10 minutes. The supernatant was injected into LC-MS/MS.
[formula] […] FL-001 and FL-003 are stable in human plasma, with a percent remaining of 127 and 89, respectively. Using the same protocol, the percent remaining of Camptothecin after 1-hr incubation in human plasma is 11%.

[3] = cited from earlier work
[4] = in presence of HSA; cited from earlier work
[5] = human plasma, 37° C., replicate 1
[6] = human plasma, 37° C., replicate 2

Human serum albumin (HSA), sequence (P02768 25-609): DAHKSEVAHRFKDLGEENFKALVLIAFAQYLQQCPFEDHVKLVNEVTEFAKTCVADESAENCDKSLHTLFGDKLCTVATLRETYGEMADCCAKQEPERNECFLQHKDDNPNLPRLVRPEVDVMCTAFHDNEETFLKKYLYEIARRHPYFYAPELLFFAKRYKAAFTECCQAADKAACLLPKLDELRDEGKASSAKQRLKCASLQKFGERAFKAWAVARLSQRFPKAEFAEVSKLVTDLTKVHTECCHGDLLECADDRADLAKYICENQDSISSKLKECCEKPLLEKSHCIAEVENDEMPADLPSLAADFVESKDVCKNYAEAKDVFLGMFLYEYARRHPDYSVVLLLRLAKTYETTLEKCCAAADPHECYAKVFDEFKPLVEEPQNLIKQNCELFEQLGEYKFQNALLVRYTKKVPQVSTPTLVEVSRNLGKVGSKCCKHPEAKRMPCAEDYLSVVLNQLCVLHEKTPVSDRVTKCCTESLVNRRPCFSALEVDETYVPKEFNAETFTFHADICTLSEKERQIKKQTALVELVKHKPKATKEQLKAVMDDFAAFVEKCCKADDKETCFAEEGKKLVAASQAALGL

Structure (SMILES): CCCCCCCCCCCCCCCCC(NC(=O)CCCC(=O)O[C@]1(CC)C(=O)OCc2c1cc1n(c2=O)Cc2cc3c(CN(C)C)c(O)ccc3nc2-1)C(=O)O (stereo partly drawn) [FL-010]
- fraction unbound at 20 h, 5 μM [1]: < 0.002

Structure (SMILES): CCCCCCCCCCCCCCCCC(NC(=O)C(CCCCN)NC(=O)CCC(=O)O[C@]1(CC)C(=O)OCc2c1cc1n(c2=O)Cc2cc3ccccc3nc2-1)C(=O)O (stereo partly drawn) [FL-013]
- fraction unbound at 20 h, 5 μM [1]: < 0.001

Structure (SMILES): CCN(CC)CCOC(=O)c1ccc(N)cc1 [Procaine, reference compound]
- Peak Area Ratio (Analyte/IS) Human Plasma 0 min Replicate 1 [2, 5]: 0.60
- Peak Area Ratio (Analyte/IS) Human Plasma 0 min Replicate 2 [2, 6]: 1.21
- Peak Area Ratio (Analyte/IS) Human Plasma 60 min Replicate 1 [2, 5]: 0.00
- Peak Area Ratio (Analyte/IS) Human Plasma 60 min Replicate 2 [2, 6]: 0.11
- % Remaining after 1-hr Incubation at 37° C. in Human Plasma, Average ([2]; human, plasma, 1 h): 6%
- % Remaining after 1-hr Incubation at 37° C. in Human Plasma, Replicate 1 ([2]; human, plasma, 1 h): 0%
- % Remaining after 1-hr Incubation at 37° C. in Human Plasma, Replicate 2 ([2]; human, plasma, 1 h): 12%

Structure (SMILES): CCCCCCCCCCCCCCCC(=O)N(CCC(=O)O[C@]1(CC)C(=O)OCc2c1cc1n(c2=O)Cc2cc3ccccc3nc2-1)CC(=O)O [FL-015]
- fraction unbound at 20 h, 5 μM [1]: < 0.001

Structure (SMILES): CCCCCCCCCCCCCCCCC(NC(=O)CCC(=O)O[C@]1(CC)C(=O)OCc2c1cc1n(c2=O)Cc2cc3c(CN(C)C)c(O)ccc3nc2-1)C(=O)O (stereo partly drawn) [FL-004]
- fraction unbound at 20 h, 5 μM [1]: < 0.002

Structure (SMILES): CCCCCCCCCCCCC(NC(=O)CCC(=O)O[C@]1(CC)C(=O)OCc2c1cc1n(c2=O)Cc2cc3c(CN(C)C)c(O)ccc3nc2-1)C(=O)O (stereo partly drawn) [FL-008]
- fraction unbound at 20 h, 5 μM [1]: < 0.002

Structure (SMILES): CC(=O)CC(c1ccccc1)c1c(O)c2ccccc2oc1=O (stereo not drawn) [Warfarin]
- protein binding in human plasma (literature values) [3]: 98-100%

Structure (SMILES): CC[C@@]1(O)C(=O)OCc2c1cc1n(c2=O)Cc2cc3c(N)cccc3nc2-1 [9-Aminocamptothecin]
- equilibrium concentration of active (lactone) form in blood [4]: less than 0.5%

Structure (SMILES): CC[C@@]1(O)C(=O)OCc2c1cc1n(c2=O)Cc2cc3ccccc3nc2-1 [Camptothecin]
- percent remaining after 1-hr incubation in human plasma ([2]; same protocol, human plasma, 1 hr): 11%

Structure (SMILES): CCCCCCCCCCCCCCCCC(NC(=O)CCC(=O)O[C@]1(CC)C(=O)OCc2c1cc1n(c2=O)Cc2cc3ccccc3nc2-1)C(=O)O (stereo partly drawn) [FL-001]
- fraction unbound at 20 h, 5 μM [1]: < 0.001
- Peak Area Ratio (Analyte/IS) Human Plasma 0 min Replicate 1 [2, 5]: 1.47
- Peak Area Ratio (Analyte/IS) Human Plasma 0 min Replicate 2 [2, 6]: 1.75
- Peak Area Ratio (Analyte/IS) Human Plasma 60 min Replicate 1 [2, 5]: 1.96
- Peak Area Ratio (Analyte/IS) Human Plasma 60 min Replicate 2 [2, 6]: 2.13
- % Remaining after 1-hr Incubation at 37° C. in Human Plasma, Average ([2]; human, plasma, 1 h): 127%
- % Remaining after 1-hr Incubation at 37° C. in Human Plasma, Replicate 1 ([2]; human, plasma, 1 h): 122%
- % Remaining after 1-hr Incubation at 37° C. in Human Plasma, Replicate 2 ([2]; human, plasma, 1 h): 132%

Structure (SMILES): CCCCCCCCCCCCCCCC(=O)N[C@@H](CCC(=O)NCC(=O)O[C@]1(CC)C(=O)OCc2c1cc1n(c2=O)Cc2c-1nc1ccc(O)cc1c2CC)C(=O)O [FL-033]
- fraction unbound at 20 h, 5 μM [1]: < 0.001

Structure (SMILES): CCCCCCCCC(NC(=O)CCC(=O)O[C@]1(CC)C(=O)OCc2c1cc1n(c2=O)Cc2cc3c(CN(C)C)c(O)ccc3nc2-1)C(=O)O (stereo partly drawn) [FL-006]
- fraction unbound at 20 h, 5 μM [1]: 0.015

Structure (SMILES): CCCCCCCCCCCCCCCCC(NC(=O)CCC(=O)O[C@]1(CC)C(=O)OCc2c1cc1n(c2=O)Cc2c-1nc1ccc(O)cc1c2CC)C(=O)O (stereo partly drawn) [FL-003]
- fraction unbound at 20 h, 5 μM [1]: < 0.001
- Peak Area Ratio (Analyte/IS) Human Plasma 0 min Replicate 1 [2, 5]: 3.91
- Peak Area Ratio (Analyte/IS) Human Plasma 0 min Replicate 2 [2, 6]: 4.03
- Peak Area Ratio (Analyte/IS) Human Plasma 60 min Replicate 1 [2, 5]: 3.37
- Peak Area Ratio (Analyte/IS) Human Plasma 60 min Replicate 2 [2, 6]: 3.73
- % Remaining after 1-hr Incubation at 37° C. in Human Plasma, Average ([2]; human plasma, 37° C., 1 hr, average of duplicates): 89%
- % Remaining after 1-hr Incubation at 37° C. in Human Plasma, Replicate 1 ([2]; human plasma, 37° C., 1 hr, replicate 1): 85%
- % Remaining after 1-hr Incubation at 37° C. in Human Plasma, Replicate 2 ([2]; human plasma, 37° C., 1 hr, replicate 2): 94%
